We go through two molecules from patent US9518038B2, “Condensation product of theanine derivative and carboxylic acid coumarin derivative, its intermediate, preparation method and use thereof” (SHANDONG YINGDONG YINGHAO BIOTECHNOLOGY, INC., priority 2012, dated 2016).

“And” between values parts separate entries of the source, which are not always exact repeats. Equal entries are not always repeated. Where two headings read alike, the source gives them in different places. Where only a bound is given, the exact number is not on record here.

Assay [1] addresses T1, EZH2 (Homo sapiens, UniProt Q15910).
T1 construct: the EZH2 enzyme was replaced with tumor protein extracts in each group; from tissue; host or cells: human tumour xenografts excised from treated nude mice
Put plainly: EZH2 enzyme activity in protein extracts of human tumor xenografts of treated mice (EZH2 Assay Kit). Format: in vivo. The settings on record: tumors excised 6 h after medication, SAHA 25 mg/kg; for inhibition: read-out: decrease of EZH2 enzyme activity/inhibition rate. In general terms: A xenograft is tissue or cells of one species grown in another, often human tumour cells in immunodeficient mice.

The target of assay [2] is T2, EZH2 (Mus musculus, UniProt Q61188).
T2 construct: the EZH2 enzyme was replaced with tumor protein extracts in each group; from tissue; host or cells: Lewis lung cancer tumours from treated mice
T2 sequence (Q61188 whole entry): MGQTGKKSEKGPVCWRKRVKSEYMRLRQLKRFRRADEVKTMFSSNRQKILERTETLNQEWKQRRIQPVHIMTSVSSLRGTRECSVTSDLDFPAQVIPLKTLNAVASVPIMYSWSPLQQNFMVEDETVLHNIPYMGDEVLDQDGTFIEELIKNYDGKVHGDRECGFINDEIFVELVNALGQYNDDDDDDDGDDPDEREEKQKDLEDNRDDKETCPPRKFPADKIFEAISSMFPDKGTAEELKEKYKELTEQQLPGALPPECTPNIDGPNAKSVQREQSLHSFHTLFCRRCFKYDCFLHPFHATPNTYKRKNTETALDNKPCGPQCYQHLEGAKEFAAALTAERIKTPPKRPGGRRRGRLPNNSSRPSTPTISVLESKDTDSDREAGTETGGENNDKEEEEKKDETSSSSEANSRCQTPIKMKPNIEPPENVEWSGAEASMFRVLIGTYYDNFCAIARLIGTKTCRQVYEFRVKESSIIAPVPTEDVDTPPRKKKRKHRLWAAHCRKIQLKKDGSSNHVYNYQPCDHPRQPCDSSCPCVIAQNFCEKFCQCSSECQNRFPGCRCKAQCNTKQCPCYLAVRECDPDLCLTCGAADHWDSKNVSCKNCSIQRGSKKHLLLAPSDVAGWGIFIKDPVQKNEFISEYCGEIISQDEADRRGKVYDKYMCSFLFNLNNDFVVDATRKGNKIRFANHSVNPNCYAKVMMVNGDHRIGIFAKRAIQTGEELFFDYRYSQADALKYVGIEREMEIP
T2 sequence (Q921E6 whole entry partner): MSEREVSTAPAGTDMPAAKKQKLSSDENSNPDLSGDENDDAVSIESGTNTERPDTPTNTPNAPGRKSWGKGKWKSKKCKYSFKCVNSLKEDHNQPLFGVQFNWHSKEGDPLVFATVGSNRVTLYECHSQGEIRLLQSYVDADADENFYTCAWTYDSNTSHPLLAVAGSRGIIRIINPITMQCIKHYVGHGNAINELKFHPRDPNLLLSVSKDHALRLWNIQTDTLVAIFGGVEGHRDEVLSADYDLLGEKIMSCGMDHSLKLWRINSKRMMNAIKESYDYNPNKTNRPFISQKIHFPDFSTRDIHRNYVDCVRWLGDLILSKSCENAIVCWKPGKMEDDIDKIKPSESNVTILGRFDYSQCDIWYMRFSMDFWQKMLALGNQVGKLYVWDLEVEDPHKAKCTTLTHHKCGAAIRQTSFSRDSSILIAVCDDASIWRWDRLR
T2 sequence (Q80U70 whole entry partner): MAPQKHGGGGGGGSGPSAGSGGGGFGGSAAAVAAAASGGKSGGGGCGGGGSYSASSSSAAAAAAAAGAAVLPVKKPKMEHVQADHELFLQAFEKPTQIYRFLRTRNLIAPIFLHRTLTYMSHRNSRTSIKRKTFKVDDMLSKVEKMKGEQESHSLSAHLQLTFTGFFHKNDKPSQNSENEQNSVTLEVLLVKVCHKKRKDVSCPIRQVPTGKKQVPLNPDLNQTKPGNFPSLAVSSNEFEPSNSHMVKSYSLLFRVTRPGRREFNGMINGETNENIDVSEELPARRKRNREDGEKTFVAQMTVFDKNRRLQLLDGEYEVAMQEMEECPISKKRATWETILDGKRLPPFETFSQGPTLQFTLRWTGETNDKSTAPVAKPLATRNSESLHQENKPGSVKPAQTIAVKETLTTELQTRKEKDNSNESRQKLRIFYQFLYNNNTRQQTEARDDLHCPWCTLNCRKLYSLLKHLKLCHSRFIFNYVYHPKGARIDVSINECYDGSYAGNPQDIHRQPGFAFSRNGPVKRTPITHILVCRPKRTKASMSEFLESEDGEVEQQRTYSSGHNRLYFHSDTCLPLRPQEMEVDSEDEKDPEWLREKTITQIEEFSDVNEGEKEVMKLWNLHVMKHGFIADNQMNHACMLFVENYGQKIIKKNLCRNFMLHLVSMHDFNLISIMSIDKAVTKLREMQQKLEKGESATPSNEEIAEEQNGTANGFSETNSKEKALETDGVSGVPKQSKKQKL
Put plainly: EZH2 enzyme activity in protein extracts of LLC tumors of treated mice (EZH2 Assay Kit). The note with it: mouse; LLC tumor grown in vivo; tumors excised 6 h after medication; SAHA 25 mg/kg; read-out: decrease of EZH2 enzyme activity/inhibition rate.

Assay [3] deals with human breast cancer cells MDA-MB-231. Put plainly: MTT growth inhibition, MDA-MB-231 cells. Format: cell-based. The note with it: 72 h after treatment, read-out: Drug concentration (IC50) at which 50% cancer cells survived. The text has this: (§1) Cell lines and cell culture: human lung cancer cells A549 and H460, human breast cancer cells MCF-7 and MDA-MB-231, human gastric cancer cells BGC-823, human prostate cancer cells PC-3, human chronic leukemia cells K562, human lymphoma cells U937, human liver cancer cells SMMC7721 and HepG2, human colon cancer cells HT29, human pancreatic cancer cells PANC-1 and BxPC3, human cervical cancer Hela cell lines, human brain tumor cells Daoy, human neuroma cells D54 and human oral epidermoid cancer cells KBV200 line with strong drug resistance, mouse melanoma cells B16, and highly metastatic Lewis lung cancer cell lines were purchased from American Type Culture Collection of the U.S. These cells were cultured with DMEM and RPMI-1640 culture solutions separately.
(§2) The procedure was as follows:
(§3) (1) 0.25% trypsin was used to digest cancer cells in a logarithmic growth phase to prepare a single-cell suspension, the concentration of cells was adjusted to 5×10^4/mL, and the adjusted suspension was inoculated into a 96-well culture plate with 100 μl per well;
(§4) (2) The culture plate was transferred into a 37° C. incubator with a saturated humidity and 5% of CO2 and cultured for 24 h; the compounds and the intermediates thereof obtained in embodiments 1-7 and the compound as represented by formula (IIIa) or the positive control anti-cancer drug with the concentration of 1-1000 μM/L were added to enable the final concentration to be 0.1-1500 μM/L. Control wells (only added with 200 μl of cell suspension) and drug-free blank control wells (containing the solvent of 0.01% DMSO) were set, each group included 8 wells, and the plate was placed into the 37° C. incubator with saturated humidity and 5% of CO2 for culturing;
(§5) (3) The 96-well plate was taken out at 48 h and 72 h after dosing, the original culture medium was carefully removed by suction, 100 μl of serum-free DMEM culture medium and 10 μl of MTT (5 mg/mL) solution were added in each well. The plate was continuously cultured for another 4 h and then the culture was terminated;
(§6) (4) The supernatant in the wells was carefully removed by suction, each well was added with 150 μl of DMSO and shaked at room temperature for 10-15 min to fully dissolve crystals.
(§7) (5) Colorimetric analysis: the wavelength was selected as 570 nm, the light absorbance (A value) of each well was determined on the microplate reader and the results were recorded; the experiment was repeated for three times;
(§8) (6) the experimental results were calculated according to the following formula: relative survival rate=(A value of each experimental group/A value of cell control group)×100%
(§9) Calculation of median-effect concentration (IC50, namely the drug concentration at which the inhibition rate is 50%, also known as half inhibitory concentration):
(§10) IC50 of the detected component was calculated by using a regression equation.

Assay [4] deals with human liver cancer cells HepG2. The assay can be described thus: MTT growth inhibition, HepG2 cells. Format: cell-based. The note with it: 72 h after treatment, read-out: Drug concentration (IC50) at which 50% cancer cells survived.
Text: as §1, §2, §3, §4, §5, §6, §7, §8, §9, §10

The test system of a further assay is p21. Put plainly: Western Blotting, increase of p21 level. Type of assay: cell-based. The note with it: liver cancer cells, Lewis lung cancer cells and other cancer cell lines and tumor tissue protein lysates, 48 h treatment, read-out: Effective concentration to increase p21 by 50%. The text has this: (§11) Antibodies: primary antibodies of VEGFR, EGFR, c-Met, K-Ras, H-Ras, Akt, NF-κB, Cyclin D1, ER-alpha, Dvl-1, Dvl-2, Dvl-3, MMP-9, MMP2, β-catenin, Bcl-2, Bax, p53, p21, E-cadherin and Caspase3 protein, purchased from American Cell Signaling Technology Company and Santa Cruz Technology Company; and H3 acetylation, H4 acetylation and HDAC (HDAC3, HDAC4 and the like) Antibody Sample Kits, purchased from Cell Signaling Technology Company of the U.S.
(§12) (3) polyacrylamide gel electrophoresis (SDS-PAGE): an equal amount of protein lysate sample was used to separate protein, film transfer, and blocking, treated with appropriate primary antibodies and secondary antibodies in sequence, and the film was washed, then the color was developed with ECL kit, and a blot protein band was detected by exposure of an X-ray film; and a Gel-Pro Analyzer was used for quantitative analysis of gray degree, optical density value of the control group and the drug treatment group in various concentration were respectively compared with that of internal reference, the obtained ratios were respectively compared with the control group, and the protein expression level was semi-quantified.
In general terms: Immunoblotting shows a protein as a band on a membrane.

For another assay, the system named is p53. Put plainly: Western Blotting, increase of p53 level. Format: cell-based. The settings on record: liver cancer cells, Lewis lung cancer cells and other cancer cell lines and tumor tissue protein lysates, 48 h treatment, read-out: Effective concentration to increase p53 by 50%.
Text: as §11, §12

Another assay has as its system E-cadherin. Put plainly: Western Blotting, increase of E-cadherin level. Type of assay: cell-based. The note with it: liver cancer cells, Lewis lung cancer cells and other cancer cell lines and tumor tissue protein lysates, 48 h treatment, read-out: Effective concentration to increase E-cadherin by 50%.
Text: as §11, §12

Assay [5] has as its system nucleoprotein factor NF-κB (p65)-DNA binding activity. The assay can be described thus: NF-κB (p65)-DNA binding activity (EMSA). Format: cell-based. The note with it: EMSA, nuclear protein extracts, 48 h, read-out: Effective concentration for 50% inhibition of binding of nucleoprotein factor NF-kB (p65) and DNA. The text has this: The in-vitro experiment of the inhibitory effect against the NF-κB(p65)-DNA binding activity was applied with the chemiluminescent EMSA kit of Pierce Biotechnology Company of the U.S., the experimental method was strictly operated according to the description of the kit and the specific procedure were as follows:
(1) Preparation of EMSA gel
The cells treated by the drugs were extracted by the nucleoprotein extract solution (provided by Beyotime Biotechnology of Institute) to obtain the nucleoprotein extracts, and 10 μg/pipe of the nucleoprotein extracts were respectively used for sample reaction and electrophoresis detection and analysis shown in the following table.
(2) Pre-electrophoresis: the gel was fixed in an electrophoresis tank, which was filled with a 0.5×TBE electrophoresis buffer solution, and electrophoresed under 10V/cm for 90 min. The probe binding reaction was as follows:
The components were added in sequence into the EP pipe according to the above table, uniformly mixed and stood at room temperature for 15 min to eliminate possible non-specific binding of probe and protein. 1 μl of biotin-labeled probe NF-κB was respectively added and stood at room temperature for 20 min.
(4) Film transfer: the process of transferring the nucleoprotein factors and the binding probe on the EMSA gel to the nylon film was electrically transferred under 380 mA in ice bath for 40 min.
(5) Ultraviolet cross-linking: the nylon film was placed under a 254 nm ultraviolet lamp and irradiated for 15 min.
(6) Detection of the biotin-labeled probe by chemiluminescence: the cross-linked nylon film was blocked with the blocking solution, a treated film was subjected to X-ray exposure, developing, and fixation according to the requirements of the kit, and the results were analyzed.
For orientation: In EMSA bound probe runs differently from free probe, usually more slowly.

For assay [6], the system named is human liver cancer cells SMMC7721. The assay can be described thus: MTT growth inhibition, SMMC7721 cells. The settings on record: SMMC-7721, S-7721 (SMMC7721), 72 h after treatment, read-out: Drug concentration (IC50) at which 50% cancer cells survived. Format: cell-based.
Text: as §1, §2, §3, §4, §5, §6, §7, §8, §9, §10

Assay [7] concerns human lung cancer cells A549. Put plainly: MTT growth inhibition, A549 cells. Type of assay: cell-based. The settings on record: 72 h after treatment, read-out: Drug concentration (IC50) at which 50% cancer cells survived.
Text: as §1, §2, §3, §4, §5, §6, §7, §8, §9, §10

The next assay has as its system Caspase3. Put plainly: Western Blotting, increase of Caspase3 level. Type of assay: cell-based. The note with it: liver cancer cells, Lewis lung cancer cells and other cancer cell lines and tumor tissue protein lysates, 48 h treatment, read-out: Effective concentration to increase Caspase-3 by 50%.
Text: as §11, §12

T1 sequence (Q15910 whole entry): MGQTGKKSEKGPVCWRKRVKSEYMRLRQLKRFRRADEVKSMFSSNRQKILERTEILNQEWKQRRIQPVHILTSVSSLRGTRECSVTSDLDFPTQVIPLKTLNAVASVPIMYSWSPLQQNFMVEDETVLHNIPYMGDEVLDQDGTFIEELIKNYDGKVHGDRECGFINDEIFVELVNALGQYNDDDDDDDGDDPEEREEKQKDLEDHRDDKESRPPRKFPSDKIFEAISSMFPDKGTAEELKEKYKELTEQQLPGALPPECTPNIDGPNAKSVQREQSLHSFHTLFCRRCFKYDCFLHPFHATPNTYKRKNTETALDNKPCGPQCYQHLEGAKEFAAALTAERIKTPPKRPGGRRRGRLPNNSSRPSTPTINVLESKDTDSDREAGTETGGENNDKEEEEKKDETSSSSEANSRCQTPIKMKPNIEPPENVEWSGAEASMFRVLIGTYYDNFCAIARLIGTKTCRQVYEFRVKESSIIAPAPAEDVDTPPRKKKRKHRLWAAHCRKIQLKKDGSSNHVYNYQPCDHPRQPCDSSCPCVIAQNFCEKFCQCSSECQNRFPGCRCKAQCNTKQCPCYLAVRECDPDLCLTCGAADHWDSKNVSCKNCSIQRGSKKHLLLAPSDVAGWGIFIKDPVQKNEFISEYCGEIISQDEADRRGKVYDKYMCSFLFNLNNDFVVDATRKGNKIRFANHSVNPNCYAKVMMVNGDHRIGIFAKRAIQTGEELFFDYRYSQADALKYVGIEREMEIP
T1 sequence (O75530 whole entry partner): as the sequence (Q921E6 whole entry partner) above
T1 sequence (Q15022 whole entry partner): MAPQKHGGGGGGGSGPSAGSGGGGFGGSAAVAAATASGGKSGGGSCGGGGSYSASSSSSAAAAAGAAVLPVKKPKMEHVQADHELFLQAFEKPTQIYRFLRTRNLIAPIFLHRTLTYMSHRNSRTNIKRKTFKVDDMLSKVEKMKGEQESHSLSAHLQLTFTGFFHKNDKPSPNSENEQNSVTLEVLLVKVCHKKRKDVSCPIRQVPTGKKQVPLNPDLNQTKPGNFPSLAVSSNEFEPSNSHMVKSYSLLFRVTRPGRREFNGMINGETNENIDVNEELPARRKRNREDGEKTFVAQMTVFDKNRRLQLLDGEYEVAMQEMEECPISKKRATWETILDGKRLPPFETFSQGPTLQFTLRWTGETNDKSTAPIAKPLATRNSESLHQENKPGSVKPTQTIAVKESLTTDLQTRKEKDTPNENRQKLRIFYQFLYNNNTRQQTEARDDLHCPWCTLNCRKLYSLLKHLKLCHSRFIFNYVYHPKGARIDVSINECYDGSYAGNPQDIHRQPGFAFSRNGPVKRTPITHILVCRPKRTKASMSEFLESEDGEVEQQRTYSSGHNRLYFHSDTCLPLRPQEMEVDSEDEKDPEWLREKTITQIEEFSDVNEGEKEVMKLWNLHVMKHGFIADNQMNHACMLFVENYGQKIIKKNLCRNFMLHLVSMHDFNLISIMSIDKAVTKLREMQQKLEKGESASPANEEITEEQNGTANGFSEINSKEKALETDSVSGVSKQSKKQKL

As to `O=C(CCCCCCC(=O)Nc1ccccc1)NO` [SAHA, suberoylanilide hydroxamic acid, reference compound], the inhibition at EZH2 [1] (A549, A549 tumor grown in vivo) is 52%; at EZH2 [1] (MCF7, MCF7 tumor grown in vivo) it was 52%; on EZH2 [1] (MDA-MB-231, MDA-MB231 tumor grown in vivo) it was 54%; on EZH2 [1] (SMMC-7721, SMMC7721 tumor grown in vivo), 48%; at EZH2 [2], 50%. The “decrease of EZH2 enzyme activity/inhibition rate” value on EZH2 [1] (A549 tumor grown in vivo) was 53%*(A549)-; at EZH2 [1] (MCF7 tumor grown in vivo), 53%*(MCF7); at EZH2 [1] (MDA-MB231 tumor grown in vivo), 55%*(MDA-MB231); on EZH2 [1] (SMMC7721 tumor grown in vivo) it was 49%*(SMMC-7721); and 49%*(SMMC7721);.
In the case of `CC[C@]1(O)C[C@H]2CN(CCc3c([nH]c4ccccc34)[C@@](C(=O)OC)(c3cc4c(cc3OC)N(C=O)[C@H]3[C@@](O)(C(=O)OC)[C@H](OC(C)=O)[C@]5(CC)C=CCN6CC[C@]43[C@@H]65)C2)C1` [Vincristine, reference compound], the IC50 in assay [3] is 130 µM; in assay [4] it was 37 µM; in [5] (A549 cells), > 70 µM; in [5] (Hela cells) it was > 70 µM; in assay [5] (MCF7 cells), > 70 µM; in assay [5] (MDA-MB231 cells), > 70 µM. Besides, the IC50 in [5] (PANC-1 cells) was > 70 µM; in assay [5] (SMMC7721 cells), > 70 µM; in assay [6] it was 78 ± 30 µM; in assay [7], 220 µM. Also, the EC50 in the assay on p21, in the assay with p53, in the assay on E-cadherin and in the assay with Caspase3 was > 70 µM in each case.
